Columns and labels:
[1] = system: InsP3 signalling in primary chick cortical neurons; experiment: Phosphoinositide hydrolysis assay (InsP3 signalling) in cultured primary cortical neurons; assay type: cell-based; conditions: for inhibitory effect on InsP3 enhancement caused by sphingosine or metabotropic glutamate receptor agonists: cortical neurons
Experimental: Primary cultures of neurons were prepared from the telencephalon of white Leghorn chick embryos on the eighth day of their development (Rosenberg et al., J.Biol. Chem. 267:10601-10612, 1992). The neurons were seeded in 24-well plastic tissue culture plates that had been coated with L-polylysine. The density of the neurons was 10^5 cells per well, and they were cultured in Dulbecco's modified Eagle's medium/Ham's high glucose F-12 medium (1:1, vol:vol) containing 500 ng/L sodium selenite, 500 μg/L transferrin, and 165 pmole/L EGF. The cultures were maintained at 37° C. under 5% CO2 in air for 4 days, by which time the cells had differentiated into neurite-bearing cortical granulocytic neurons. These cultures of mature embryonic neurons were used for phosphoinositide hydrolysis assays (as described in Example 2).
Receptor-stimulated and basal unstimulated hydrolysis of phosphoinositides was measured by the following procedure. In order to label the cellular phosphoinositides metabolically, the primary cultures of chick cortical neurons (described in Example 1) were incubated overnight with 0.5 ml Dulbecco's modified Eagle's medium containing 1 μCi [^3 H]myo-inositol per well. The cells were then washed twice with 1 ml Dulbecco's phosphate-buffered saline (PBS) and 0.5 ml of PBS containing 4.5 g/L glucose was added. Sphingosine, psychosine, lysosulphatide, or lysosphingomyelin, prepared as the hydrochloride salt dissolved in water, were then added to produce the desired extracellular concentration in specific wells, […] The cells were then washed twice with 1 ml PBS, and pre-incubated for 15 minutes at 37° C. with 0.5 ml PBS containing 10 mM LiCl and the compound to be tested was added. […] The tubes were vortexed thoroughly, then centrifuged at 500×g for 5 minutes to separate the aqueous and chloroform phases. For each sample, a 1.5-ml aliquot of the upper (aqueous) phase was applied to a small column containing BioRad AG1X8 resin (formate form). Free [^3 H]inositol and [^3 H]glycerophosphoinositol were washed through the column with 5 ml of a solution containing 5 mM sodium borate and 60 mM sodium formate. The total phosphorylated [^3 H] inositol fraction was eluted from the column for radiometric scintillation spectrometry analysis with 3 ml 1.0 M ammonium formate/0.1 M formic acid;
(§1) In addition, a 0.5 ml aliquot of the lower (chloroform) phase of each sample was analyzed radiometrically by scintillation spectrometry in order to determine the quantity of lipid-bound [^3 H]myo-inositol. Estimation of phosphoinositide hydrolysis by phospholipase C is based upon the quantity of [^3 H]inositol phosphates produced, and is expressed as the percentage of the latter relative to total free and componential [^3 H]inositol (dpm ammonium formate+dpm chloroform fractions).
Cultured primary chick cortical neurons that were prelabeled with [^3 H]myo-inositol were examined for enhanced InsP3 signalling in response to various agonists including glutamate, aspartate, and the metabotropic […] receptor agonists ibotenate and quisqualate.

[2] = system: phospholipase C isoforms beta, delta, and gamma; conditions: for diminution in Vmax / increase in calcium ion concentration required for optimal activity: 10 μM lysocerebroside or 5 μM lysosphingomyelin; for effect on KM for substrate phosphatidylinositol bis-phosphate: 10 μM lysocerebroside, 5 μM lysosphingomyelin
Experimental: The effects of sphingosine, lysocerebroside, and lysosphingomyelin on the kinetics of pure, immunologically isolated phospholipase C isoforms beta, delta, and gamma (which are commercially available) was examined. For each isoform, 10 μM sphingosine was added to a reaction medium consisting of 1 μg phospholipase C isoform/ml, Tris-malate buffer (50 mM, pH 7.0) containing 100 μM phosphatidyl inositol bis-phosphate tri-ammonium salt, 0.01 μCi tritium labeled phosphatidyl inositol bis-phosphate, 100 mM NaCl, 10 mM CaCl2, and 5 mM 2-merceptoethanol.

[3] = system: bradykinin-stimulated phosphoinositide signalling in PC12 cells; experiment: Phosphoinositide hydrolysis assay (InsP3 production) in PC12 cells; assay type: cell-based, rat; conditions: for sensitivity of PC12 cells to bradykinin: at relatively moderate levels
Description: PC12 cells, from a rat adrenal pheochromocytoma cell line, were used as a model of neurons from the peripheral nervous system. These cells were obtained from a common laboratory cell culture stock and grown in plastic culture flasks in Dulbecco's modified Eagle's medium (DMEM) supplemented with 5% heat-inactivated horse serum and 10% heat-inactivated fetal calf serum (PC12 cells are also available from the American Type Culture Collection under the Accession number CRL 1721). The cells were grown at 37° C. in 5% CO2 in air until a confluent monolayer formed. The cells were dispersed into 24-well plastic tissue culture plates at a density of 10^5 cells per well and used for the phosphoinositide hydrolysis assays (as described in EXAMPLE 2).
Receptor-stimulated and basal unstimulated hydrolysis of phosphoinositides was measured by the following procedure. In order to label the cellular phosphoinositides metabolically, the primary cultures of chick cortical neurons (described in Example 1) were incubated overnight with 0.5 ml Dulbecco's modified Eagle's medium containing 1 μCi [^3 H]myo-inositol per well. The cells were then washed twice with 1 ml Dulbecco's phosphate-buffered saline (PBS) and 0.5 ml of PBS containing 4.5 g/L glucose was added. Sphingosine, psychosine, lysosulphatide, or lysosphingomyelin, prepared as the hydrochloride salt dissolved in water, were then added to produce the desired extracellular concentration in specific wells, and the 24-well plates were swirled gently on a rotary shaker for 1 hr at 23° C. The cells were then washed twice with 1 ml PBS, and pre-incubated for 15 minutes at 37° C. with 0.5 ml PBS containing 10 mM LiCl and the compound to be tested was added. After 30 minutes, the experiment was terminated by adding 1 ml of ice-cold methanol to each well and transferring the material in each well to polypropylene tubes that contained 0.4 ml water and 1 ml chloroform. The tubes were vortexed thoroughly, then centrifuged at 500×g for 5 minutes to separate the aqueous and chloroform phases. For each sample, a 1.5-ml aliquot of the upper (aqueous) phase was applied to a small column containing BioRad AG1X8 resin (formate form). Free [^3 H]inositol and [^3 H]glycerophosphoinositol were washed through the column with 5 ml of a solution containing 5 mM sodium borate and 60 mM sodium formate. The total phosphorylated [^3 H] inositol fraction was eluted from the column for radiometric scintillation spectrometry analysis with 3 ml 1.0 M ammonium formate/0.1 M formic acid;
as §1
PC12 cells display a strong phospholipase C-linked metabotropic receptor response to bradykinin, an effective pain producing agonist.
The degree of InsP3 inhibition is a function of the log of the psychosine concentration for a fixed time of exposure (FIG. 4). Exposing PC12 cells to 50 μM exogenous psychosine for 30 minutes was sufficient to reduce a metabotropic response to 10 μM bradykinin to half maximum.

SMILES | Ins-P-n, modulator Lsm:Sph ([1]; 20 μM Lysosphingomyelin + 20 μM Sphingosine, then 100 μM agonist 20 min, normalized to control = 1.00) | Ins-P-n, modulator Psy:Sph ([1]; 20 μM Psychosine + 20 μM Sphingosine, then 100 μM agonist 20 min, normalized to control = 1.00) | fold induction at 100 µM ([1]; Gallus gallus, Cortical neurone, 20 min, read-out: Ins-P-n (agonist alone)) | inhibitory effect on InsP3 enhancement caused by sphingosine or metabotropic glutamate receptor agonists [1] | diminution in Vmax [2] | increase in calcium ion concentration required for optimal activity [2] [fold] | effect on KM for substrate phosphatidylinositol bis-phosphate ([2]; 10 μM sphingosine) | InsP3 production ([3]; PC12 cells) | sensitivity of PC12 cells to bradykinin [3] | basal, unstimulated InsP3 level in cortical neurons [1] | calcium ion concentration required for optimal activity ([2]; 10 μM sphingosine) | basal, unstimulated level of InsP3 production ([3]; PC12 cells) | IC50 ([3]; PC12 cells, 30 minutes exposure, 10 μM bradykinin, read-out: exogenous concentration reducing metabotropic response to bradykinin to half maximum) [µM]
N[C@@H](Cn1oc(=O)[nH]c1=O)C(=O)O [Quisqualate, quisqualate] | 2.25 ± 0.15 | 3.30 ± 0.25 | 3 ± 0.05 | – | – | – | – | – | – | – | – | – | –
CCCCCCCCCCCCC/C=C/[C@@H](O)[C@@H](N)COP(=O)([O-])OCC[N+](C)(C)C [lysosphingomyelin, sphingosyl phosphoryicholine] | – | – | – | blocked this enhancement | 60%±10% | 5 | no change | strongly inhibit | can entirely block | – | – | – | –
CCCCCCCCCCCCC/C=C/[C@@H](O)[C@@H](N)CO [sphingosine] | – | – | – | – | – | – | no effect | – | – | tonically enhanced | decrease | tonically upregulated | –
CCCCCCCCCCCCC/C=C/[C@@H](O)[C@@H](N)CO[C@@H]1O[C@H](CO)[C@H](O)[C@H](O)[C@H]1O [psychosine, lysocerebroside] | – | – | – | blocked this enhancement | 60%±10% | 5 | no change | strongly inhibit | can entirely block | – | – | – | 50

Source: patent US6083920A, “Compositions for modulating intracellular inositol trisphosphate concentration” (priority 1996, dated 2000)
